In article PMC8969894 (Journal of medicinal chemistry, 2021):
Where two headings read alike, the source gives them in different places. Each block holds one molecule with its values, some of them ahead of it.

Legend:
[1] = Rat plasma protein binding; type: in vitro ADME
Aqueous solubility = type: physicochemical; conditions: aqueous medium (not further specified)
[2] = rat liver microsomes; cited from earlier work
MDCK-MDR1 cells = conditions: cited from earlier work
[3] = Metabolic stability in rat liver microsomes; type: in vitro ADME
[4] = In vivo pharmacokinetics in Sprague-Dawley rats; conditions: male, rat, ip, 10 mg/kg
Sprague-Dawley rats = test: Locomotor activity; type: in vivo, rat; conditions: 10 mg/kg i.p., 30 min, p > 0.05
[5] = tested on: panel of ~50 GPCRs (PDSP); conditions: 10 μM; any of the receptors of the panel

fraction unbound [1]: 0.001
solubility (Aqueous solubility): < 0.5 µM
SMILES: O=C(Nc1ccc(Cl)cc1)Nc1cccc(-c2cccc(N3CCCC3)n2)c1 [Compound 2, 1-(4-chlorophenyl)-3-{3-[6-(pyrrolidin-1-yl)pyridin-2-yl]phenyl}urea]
%Qh (percentage of hepatic blood flow) [2]: 72.6%
Efflux BA/AB (MDCK-MDR1 cells): 0.8
Papp (A-to-B) (MDCK-MDR1 cells): 2.6 ± 0 x10^−6 cm/s
Papp (B-to-A) (MDCK-MDR1 cells): 2.2 ± 0.1 x10^−6 cm/s

%Qh (percentage of hepatic blood flow) [3]: 72.2%
SMILES: Cc1cccc(CCNC(=O)Nc2ccc(Cl)cc2)c1 [Compound 17, 3-(4-Chlorophenyl)-1-[2-(3-methylphenyl)ethyl]urea]

CL/F ([4]; brain): 121 mL/min/kg
half-life ([4]; brain): 54 min
half-life ([4]; plasma): 37.8 min
locomotion (Sprague-Dawley rats): did not significantly affect locomotion
inhibition at PDSP panel receptors [5]: < 50 % inhibition
SMILES: O=C(NCCc1cccc(Cl)c1)Nc1ccc(Cl)cc1 [Compound 31, 3-(4-Chlorophenyl)-1-[2-(3-chlorophenyl)ethyl]urea]

%Qh (percentage of hepatic blood flow) [3]: 69.8%
SMILES: O=C(NCCc1cccc(C(F)(F)F)c1)Nc1ccc(Cl)cc1 [Compound 34, 3-(4-Chlorophenyl)-1-{2-[3-(trifluoromethyl)phenyl]ethyl}urea]
